Reference: ChEMBL document CHEMBL1201862, “PubChem BioAssay data set” (2004)
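Exposure lasted 48 hours, with cells grown in 96-well plates and compounds tested at five concentrations. The concentration for 50% growth inhibition is given as GI50.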 Activity calls are given as the source filed them. Cut-off read from the data, not from the text of the source: active = GI50 up to about 1.1 µM and inactive = higher.

What was measured:
Experiment in all cases: NCI tumour cell line growth inhibition, 48 h
[1] = test system: U-251
[2] = test system: HOP-62
[3] = test system: UO-31
[4] = test system: T47D
[5] = test system: SF-295
[6] = test system: HCT-116
[7] = test system: NCI-H226
[8] = test system: BT-549
[9] = test system: SF-539
[10] = test system: RPMI-8226
[11] = test system: NCI-H23
[12] = test system: MDA-MB-435
[13] = test system: IGROV-1
[14] = test system: NCI/ADR-RES
[15] = test system: UACC-257
[16] = test system: SW-620
[17] = test system: A498
[18] = test system: ACHN
[19] = test system: SK-MEL-5
[20] = test system: MDA-MB-231

| Structure (SMILES) | GI50 [1] | GI50 [2] | GI50 [3] | GI50 [4] | GI50 [5] | GI50 [6] | GI50 [7] | GI50 [8] | GI50 [9] | GI50 [10] | GI50 [11] | GI50 [12] | GI50 [13] | GI50 [14] | GI50 [15] | GI50 [16] | GI50 [17] | GI50 [18] | GI50 [19] | GI50 [20] |
| --- | --- | --- | --- | --- | --- | --- | --- | --- | --- | --- | --- | --- | --- | --- | --- | --- | --- | --- | --- | --- |
| CC(Oc1ccccc1Cl)C(=O)NN1C(=O)CC(=O)N(c2ccc(Cl)cc2)C1=S (stereo not given) | 39.4 µM (inactive) | 46.3 µM (inactive) | 37.1 µM (inactive) | 34.6 µM (inactive) | 44.1 µM (inactive) | 32.1 µM (inactive) | 52.8 µM (inactive) | 55.1 µM (inactive) | 75.5 µM (inactive) | 33.2 µM (inactive) | 38 µM (inactive) | 61 µM (inactive) | 50.1 µM (inactive) | 36.1 µM (inactive) | 45.1 µM (inactive) | 52 µM (inactive) | 20.4 µM (inactive) | 37.4 µM (inactive) | 36 µM (inactive) | 40.4 µM (inactive) |
| N#Cc1c(N2CCCC2)nsc1NCc1ccccc1 | > 100 µM (inactive) | > 100 µM (inactive) | 4.14 µM (inactive) | 74.6 µM (inactive) | > 100 µM (inactive) | > 100 µM (inactive) | > 100 µM (inactive) | > 100 µM (inactive) | > 100 µM (inactive) | > 100 µM (inactive) | > 100 µM (inactive) | > 100 µM (inactive) | > 100 µM (inactive) | > 100 µM (inactive) | > 100 µM (inactive) | > 100 µM (inactive) | > 100 µM (inactive) | 91 µM (inactive) | > 100 µM (inactive) | > 100 µM (inactive) |
| C=C1CC(C)(COc2cc(=O)oc3ccccc23)OC1=O (stereo not given) | 14.3 µM (inactive) | 20.2 µM (inactive) | 12.1 µM (inactive) | 2.48 µM (inactive) | 12.7 µM (inactive) | 2.71 µM (inactive) | 10.3 µM (inactive) | 1.73 µM (inactive) | 3.96 µM (inactive) | 0.637 µM (active) | 3.87 µM (inactive) | 5.53 µM (inactive) | 3.03 µM (inactive) | 3.35 µM (inactive) | 1.87 µM (inactive) | 2.57 µM (inactive) | 2.91 µM (inactive) | 5.21 µM (inactive) | 5.33 µM (inactive) | 7.38 µM (inactive) |
| O=C1C=CC(=O)N1c1ccc2c(c1)Cc1cc(NC(=O)C(F)(F)F)ccc1-2 | 18.2 µM (inactive) | 20.1 µM (inactive) | 13.6 µM (inactive) | 17.9 µM (inactive) | > 100 µM (inactive) | 7.36 µM (inactive) | 4.84 µM (inactive) | 16.6 µM (inactive) | 18 µM (inactive) | 2.9 µM (inactive) | 16.4 µM (inactive) | 17.4 µM (inactive) | 16.6 µM (inactive) | 27.7 µM (inactive) | 18 µM (inactive) | 9.84 µM (inactive) | 20 µM (inactive) | 4.43 µM (inactive) | 47 µM (inactive) | 16.4 µM (inactive) |
| O=C(/C=C/c1cc(O)c(O)cc1O)OCCc1ccccc1 | 27.7 µM (inactive) | 31.1 µM (inactive) | 10.3 µM (inactive) | 4.4 µM (inactive) | 29.4 µM (inactive) | > 41.7 µM (inactive) | 35.6 µM (inactive) | 25.7 µM (inactive) | 18.6 µM (inactive) | 3.56 µM (inactive) | 24.2 µM (inactive) | 20.2 µM (inactive) | 23.1 µM (inactive) | 27.2 µM (inactive) | 34.8 µM (inactive) | 5.19 µM (inactive) | 21.2 µM (inactive) | 12.2 µM (inactive) | 18.7 µM (inactive) | 23.5 µM (inactive) |
| COc1cc(C2c3cc4c(cc3OC(N3CCOCC3)C2C)OCO4)cc(OC)c1OC (stereo not given) | 0.893 µM (active) | 3.63 µM (inactive) | 1.86 µM (inactive) | 0.323 µM (active) | 0.519 µM (active) | 0.65 µM (active) | 2.6 µM (inactive) | 4.29 µM (inactive) | 0.462 µM (active) | 0.778 µM (active) | 1.38 µM (inactive) | 0.179 µM (active) | 1.31 µM (inactive) | 0.335 µM (active) | 0.748 µM (active) | 0.59 µM (active) | 0.743 µM (active) | 3.85 µM (inactive) | 0.378 µM (active) | 2.84 µM (inactive) |
| CN(/N=C/c1ccccn1)C1=NCCCN1 | > 100 µM (inactive) | > 100 µM (inactive) | > 100 µM (inactive) | > 100 µM (inactive) | > 100 µM (inactive) | > 100 µM (inactive) | > 100 µM (inactive) | > 100 µM (inactive) | > 100 µM (inactive) | > 100 µM (inactive) | > 100 µM (inactive) | > 100 µM (inactive) | > 100 µM (inactive) | > 100 µM (inactive) | > 100 µM (inactive) | > 100 µM (inactive) | 91.6 µM (inactive) | > 100 µM (inactive) | > 100 µM (inactive) | > 100 µM (inactive) |
| NC(=O)NC1C(c2ccccc2)=C1c1ccccc1 | 13.9 µM (inactive) | 36.4 µM (inactive) | 13.6 µM (inactive) | 69.5 µM (inactive) | 17.6 µM (inactive) | 15.7 µM (inactive) | 5.08 µM (inactive) | 12.6 µM (inactive) | 15.4 µM (inactive) | 7.21 µM (inactive) | 21.2 µM (inactive) | 18.7 µM (inactive) | 12.7 µM (inactive) | 10.5 µM (inactive) | 18.6 µM (inactive) | 13.7 µM (inactive) | 15 µM (inactive) | 10.6 µM (inactive) | 11.1 µM (inactive) | 12.6 µM (inactive) |
| Clc1cc(OCc2nn3c(Cc4ccccc4)nnc3s2)ccc1OCc1nn2c(Cc3ccccc3)nnc2s1 | 21.6 µM (inactive) | 31.8 µM (inactive) | 39.4 µM (inactive) | 20.9 µM (inactive) | 19.5 µM (inactive) | 53.5 µM (inactive) | 54.6 µM (inactive) | 25.8 µM (inactive) | 16.2 µM (inactive) | 49.7 µM (inactive) | 38.9 µM (inactive) | 51.6 µM (inactive) | 30.6 µM (inactive) | 59.3 µM (inactive) | > 100 µM (inactive) | 79.8 µM (inactive) | 29.1 µM (inactive) | 24.2 µM (inactive) | 25.4 µM (inactive) | 18.5 µM (inactive) |
| COc1c(OC)c(OC)c2c(=O)cc(-c3ccc(OC(C)C)cc3)oc2c1OC | > 37.2 µM (inactive) | 18.5 µM (inactive) | 18.2 µM (inactive) | 7.03 µM (inactive) | 29.4 µM (inactive) | 10.8 µM (inactive) | 15.1 µM (inactive) | 16.7 µM (inactive) | 19.7 µM (inactive) | 3.75 µM (inactive) | 27.6 µM (inactive) | 26 µM (inactive) | > 42.6 µM (inactive) | 17.5 µM (inactive) | 25.6 µM (inactive) | > 44 µM (inactive) | 8.3 µM (inactive) | 34.2 µM (inactive) | 8.97 µM (inactive) | 29.3 µM (inactive) |
| [O-]c1c2cc(-[n+]3c(-c4ccccc4)cc(-c4ccccc4)cc3-c3ccccc3)cc1CO[C@@H](c1ccccc1)[C@H](c1ccccc1)OCCOCCO[C@@H](c1ccccc1)[C@H](c1ccccc1)OC2 | 0.0297 µM (active) | 0.129 µM (active) | 0.379 µM (active) | 0.0344 µM (active) | 0.0719 µM (active) | 0.0362 µM (active) | 0.0885 µM (active) | 0.0356 µM (active) | 0.408 µM (active) | 0.0176 µM (active) | 0.0574 µM (active) | 0.049 µM (active) | 0.0455 µM (active) | 1.14 µM (inactive) | 0.106 µM (active) | 0.0562 µM (active) | 0.5 µM (active) | 0.167 µM (active) | 0.03 µM (active) | 0.104 µM (active) |
| N#Cc1cc(-c2nc3ccc(F)cc3s2)ccc1N | 63 µM (inactive) | 72.1 µM (inactive) | > 100 µM (inactive) | > 100 µM (inactive) | > 100 µM (inactive) | 33.5 µM (inactive) | > 100 µM (inactive) | > 100 µM (inactive) | 51.1 µM (inactive) | > 100 µM (inactive) | > 100 µM (inactive) | 17.7 µM (inactive) | 3.27 µM (inactive) | > 100 µM (inactive) | > 100 µM (inactive) | > 100 µM (inactive) | > 100 µM (inactive) | > 100 µM (inactive) | > 100 µM (inactive) | > 100 µM (inactive) |
| Cc1ccc(S(=O)(=O)N2CCCSCCSCCCN(S(=O)(=O)c3ccc(C)cc3)CC2)cc1 | > 100 µM (inactive) | > 100 µM (inactive) | > 100 µM (inactive) | 57.8 µM (inactive) | > 100 µM (inactive) | > 100 µM (inactive) | > 100 µM (inactive) | > 100 µM (inactive) | > 100 µM (inactive) | > 100 µM (inactive) | > 100 µM (inactive) | > 100 µM (inactive) | > 100 µM (inactive) | > 100 µM (inactive) | > 100 µM (inactive) | > 100 µM (inactive) | > 100 µM (inactive) | > 100 µM (inactive) | > 100 µM (inactive) | > 100 µM (inactive) |
| O=[N+]([O-])c1ccc(C2=NOC(c3ccccc3)N2C23CC4CC(CC(C4)C2)C3)cc1 (stereo not given) | 34.6 µM (inactive) | 26.5 µM (inactive) | 9.23 µM (inactive) | 25.7 µM (inactive) | 26.8 µM (inactive) | 22.1 µM (inactive) | 30.5 µM (inactive) | 19.8 µM (inactive) | 54 µM (inactive) | > 10 µM (inactive) | 41 µM (inactive) | 21.8 µM (inactive) | 24.8 µM (inactive) | 35.8 µM (inactive) | 47.8 µM (inactive) | 35.3 µM (inactive) | > 100 µM (inactive) | 20.1 µM (inactive) | 22.2 µM (inactive) | 31.4 µM (inactive) |
